Experimental data taken from US8735387B2, “Oxazolopyrimidines as Edg-1 receptor agonists” (Sanofi, priority 2008, dated 2014).

These compounds were tested against T1, human Edg-1 receptor (Homo sapiens, UniProt P21453) (assay: GTP-γ-S assay using human Edg-1 receptors (scintillation proximity assay, membrane preparation from CHO Flp-In cell line)). Conditions: example compound at 10 μM; relative to 10 μM S1P; GTP-γ-S SPA, human Edg-1 membranes.
T1 construct: expressed in transfected cells; membrane preparation
Format: biochemical
From the text: Determination of the Pharmacological Activity A) GTP-γ-S Assay Using Human Edg-1 Receptors
In order to determine the Edg-1 receptor activation by the compounds of the invention, a GTP-γ-S (guanosine 5′-[γ-thio]triphosphate) assay for G-protein coupled receptor binding based on the scintillation proximity assay principle was used, employing a cell membrane preparation from a CHO Flp-In cell line which constitutively overexpresses the human Edg-1 receptor.
The Flp-In™ expression system (Invitrogen, cat. no. K6010-01) allows the generation of stable mammalian cell lines into which the gene of interest has been integrated through homologous recombination at a specific genomic location called Flp Recombination Target (FRT) site by means of a Flp recombinase encoded by the pOG44 expression plasmid. The integration of the pcDNA5/FRT expression construct into the Flp-In host cell line genome results in the transcription of the gene of interest. The stably transfected cells become hygromycin-resistant.
One day prior to transfection, 200 000 Flp-In-CHO cells were seeded in Ham F-12 medium (Invitrogen, cat. no. 31765) supplemented with 10% fetal calf serum (FCS; Perbio Science, cat. no. SH30068.03) in a 6-well plate and incubated at 37° C./5% CO2 overnight. Using the FuGENE® 6 transfection reagent (Roche, cat. no. 11988387001), cells were cotransfected with the Flp recombinase expression plasmid pOG44 and a modified plasmid additionally containing the edg-1 gene (accession no. NM_001400) termed as pcDNA5-FRT-TO_nFLAG_DEST-EDG-1 with a 9:1 ratio. To obtain the modified pcDNA5-FRT-TO_nFLAG_DEST plasmid, the Invitrogen plasmid pcDNA5/FRT/TO (Invitrogen, cat. no. V6520-20) was adapted to the Gateway® (Invitrogen) cloning system by inserting a Gateway cassette containing attR recombination sites flanking a ccdB gene and a chloramphenicol-resistance gene (Gateway conversion system, Invitrogen, cat. no. 11828-029). In addition a FLAG tag epitope was added before the 5′ att recombination site to allow recombinant expression of N-terminally FLAG-tagged proteins.
For the transfection of one well, 1.08 μg of pOG44 and 0.12 μg of pcDNA5-FRT-TO_nFLAG_DEST-EDG-1 were mixed to 100 μl of serum-free Ham F-12 medium containing 6 μl of FuGENE® 6 transfection reagent. After 20 min of incubation, the transfection reagent/DNA complex was distributed dropwise on the cells. The cells were incubated for 24 h at 37° C. Then the cells from 3 wells each were transferred to a T75 flask (Greiner Cellstar®, cat. no. 658175) containing Ham F-12 medium supplemented with 10% of FCS but without antibiotic and were incubated another 24 h. 48 h after transfection, the medium was replaced by selection medium (Ham F-12 supplemented with 10% of FCS and 300 μg/ml of hygromycin B (Invitrogen, cat. no. 10687-010)). The medium was exchanged every 2 to 3 days until a resistant population of cells had grown. […] After 2 weeks of selection, the cells were transferred into T175 flasks (Greiner Cellstar®, cat. no. 660175) and cultivated for batch production. Cells were harvested from the culture flasks by short treatment (2 to 5 min) with Accutase (PAA, cat. no. L11-007), resuspended in selection medium (see above) and centrifuged at 200×g for 5 min. Cells were resuspended in a mixture of 90% of FCS and 10% of dimethylsulfoxide and stored frozen in liquid nitrogen.
A membrane preparation was obtained by standard methods from the afore-described CHO Flp-In cell line constitutively overexpressing the human Edg-1 receptor. Briefly, the cryopreserved cells were taken in culture and grown until confluency in T175 cell culture flasks (Becton Dickinson, cat. no. 35 5001). […]

T1 sequence (P21453 whole entry): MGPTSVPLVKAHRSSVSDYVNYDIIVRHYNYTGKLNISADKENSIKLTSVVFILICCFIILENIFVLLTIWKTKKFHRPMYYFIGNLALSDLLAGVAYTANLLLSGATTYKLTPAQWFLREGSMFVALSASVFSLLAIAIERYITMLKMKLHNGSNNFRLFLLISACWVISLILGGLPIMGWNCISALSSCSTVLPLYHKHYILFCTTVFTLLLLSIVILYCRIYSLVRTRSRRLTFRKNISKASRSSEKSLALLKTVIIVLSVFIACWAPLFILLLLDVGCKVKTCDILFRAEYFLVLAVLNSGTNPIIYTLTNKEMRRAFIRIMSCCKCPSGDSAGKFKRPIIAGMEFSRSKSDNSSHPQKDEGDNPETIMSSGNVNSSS

SMILES	% Activation (Edg-1 receptor activation in percent of the activation by 10 μM S1P) [%]
CCCOc1nc(CN2CCC(F)(F)CC2)nc2oc(-c3cccc(OC)c3)nc12 [Example 36]	127
CCCOc1nc(CN2CCCOCC2)nc2oc(-c3cccc(OC)c3)nc12 [Example 37]	116
CCCOc1nc(CN2CCOCC2)nc2oc(-c3cccc(C)c3)nc12 [Example 38]	114
CCCOc1nc(CN2CCOCC2)nc2oc(-c3cncc(F)c3)nc12 [Example 39]	82
CCCOc1nc(CN2CCC(F)(F)CC2)nc2oc(-c3cncc(F)c3)nc12 [Example 40]	123
CCCOc1nc(CN2CCOCC2)nc2oc(-c3ccccc3)nc12 [Example 41]	116
CCCOc1nc(CN2CCC(F)(F)CC2)nc2oc(-c3ccccc3)nc12 [Example 42]	92
CCCOc1nc(CN2CCCOCC2)nc2oc(-c3ccccc3)nc12 [Example 43]	122
CCCOc1nc(Cn2ccnn2)nc2oc(-c3cccc(F)c3)nc12 [Example 44]	78
CCCOc1nc(CN2CCS(=O)(=O)CC2)nc2oc(-c3cccc(F)c3)nc12 [Example 45]	69
CCCOc1nc(CN2CC[S+]([O-])CC2)nc2oc(-c3cccc(F)c3)nc12 [Example 46]	35
CCCOc1nc(CN2CC(C)OC(C)C2)nc2oc(-c3cccc(F)c3)nc12 (centres unmarked) [Example 47]	85
CCCOc1nc(Cn2ccnc2C)nc2oc(-c3cccc(F)c3)nc12 [Example 48]	81
CCCOc1nc(CN2CC3CC2CO3)nc2oc(-c3cccc(F)c3)nc12 (centres unmarked) [Example 49]	48
CCCOc1nc(CN2CCCC(F)(F)C2)nc2oc(-c3cccc(F)c3)nc12 [Example 50]	102
CCCOc1nc(CN2CC(C(=O)O)C2)nc2oc(-c3cccc(F)c3)nc12 [Example 51]	24
CCCOc1nc(CN2CC(C(=O)OC)C2)nc2oc(-c3cccc(F)c3)nc12 [Example 52]	35
CCCOc1nc(CN2C(=O)CN(C)C2=O)nc2oc(-c3cccc(F)c3)nc12 [Example 53]	69
CCCOc1nc(Cn2cnc(CO)c2)nc2oc(-c3cccc(F)c3)nc12 [Example 54]	30
CCCOc1nc(CN2CCN(S(C)(=O)=O)CC2)nc2oc(-c3cccc(F)c3)nc12 [Example 55]	22
CCCOc1nc(Cn2cnc(C(=O)OC)c2)nc2oc(-c3cccc(F)c3)nc12 [Example 56]	44
CCCOc1nc(Cn2cnc(C)c2)nc2oc(-c3cccc(F)c3)nc12 [Example 57]	99
CCCOc1nc(Cn2cc(C)cn2)nc2oc(-c3cccc(F)c3)nc12 [Example 58]	35
CCCOc1nc(Cn2cnc(-c3ccccc3)c2)nc2oc(-c3cccc(F)c3)nc12 [Example 59]	30

SMILES	% Activation (Edg-1 receptor activation in percent of the activation by 10 μM S1P) [%]
CCCOc1nc(Cn2cncc2C(=O)OC)nc2oc(-c3cccc(F)c3)nc12 [Example 60]	64
CCCOc1nc(Cn2ccnc2)nc2oc(-c3cccc(F)c3)nc12 [Example 61]	76
CCCOc1nc(CN2C(=O)COCC2=O)nc2oc(-c3cccc(F)c3)nc12 [Example 62]	94
CCCOc1nc(CN2C(=O)CCCC2=O)nc2oc(-c3cccc(F)c3)nc12 [Example 63]	102
CCCOc1nc(CN2CCSC2)nc2oc(-c3cccc(F)c3)nc12 [Example 64]	93
CCCOc1nc(CN2CCSCC2)nc2oc(-c3cccc(F)c3)nc12 [Example 65]	109
CCCOc1nc(CN2CCOCC2)nc2oc(-c3ccc(F)c(F)c3)nc12 [Example 66]	107
CCCOc1nc(CN2CCCOCC2)nc2oc(-c3ccc(F)c(F)c3)nc12 [Example 67]	105
CCCOc1nc(CN2CCC(F)(F)CC2)nc2oc(-c3ccc(F)c(F)c3)nc12 [Example 68]	120
CCCOc1nc(CN2CCCC(F)C2)nc2oc(-c3cccc(F)c3)nc12 (centres unmarked) [Example 69]	113
CCCOc1nc(CN2CCC(F)CC2)nc2oc(-c3cccc(F)c3)nc12 [Example 70]	113
CCCOc1nc(CN2CCOCC2)nc2oc(-c3ccnc(Cl)c3)nc12 [Example 71]	116
CCCOc1nc(CN2CCOCC2)nc2oc(-c3cccc(C(F)(F)F)c3)nc12 [Example 72]	99
CCCOc1nc(CN2CCC(F)(F)CC2)nc2oc(-c3cccc(C(F)(F)F)c3)nc12 [Example 73]	120
CCCOc1nc(CN2CCCOCC2)nc2oc(-c3cc(Cl)ccc3OC)nc12 [Example 74]	114
CCCOc1nc(CN2CCOCC2)nc2oc(-c3cc(Cl)ccc3OC)nc12 [Example 75]	72
CCCOc1nc(CN2CCC(F)(F)CC2)nc2oc(-c3cc(Cl)ccc3OC)nc12 [Example 76]	104
CCCOc1nc(CN2CCOCC2)nc2oc(-c3ccc(Cl)c(Cl)c3)nc12 [Example 77]	112
CCCOc1nc(CN2CCCOCC2)nc2oc(-c3ccc(Cl)c(Cl)c3)nc12 [Example 78]	103
CCCOc1nc(CN2CCC(F)(F)CC2)nc2oc(-c3ccc(Cl)c(Cl)c3)nc12 [Example 79]	111
CCCOc1nc(CN2CCCOCC2)nc2oc(-c3cc(OC)ccc3OC)nc12 [Example 80]	65
CCCOc1nc(CN2CCC(F)(F)CC2)nc2oc(-c3cc(OC)ccc3OC)nc12 [Example 81]	83
CCCOc1nc(CN2CCOCC2)nc2oc(-c3c(F)ccc(F)c3F)nc12 [Example 82]	104
